According to patent US4680382A, “Analogues of actinomycin D” (priority 1986, dated 1987):
Where “and” joins values, the source holds several entries; their conditions need not be identical. Equal values may be shown once. *1 amine or outer side, *2 acyl side, *3 side chain or, on linkers, in order; H or OH if unused. Where a SMILES comes first, the peptide text is derived from it. Bridges are numbered along the chain shown (N, C = ends). Roman numbers before positions name the chains, in order. [ ]: non-standard residue; d: D form. Actinocin(9to1) = Cc1c2oc3c(C)ccc(C(=O)[*:1])c3nc-2c(C(=O)[*:2])c(N)c1=O; NMeV = CN[C@H](C(=O)O)C(C)C; Sar = CNCC(=O)O

Assays:
[1] = test system: P388 cells; assay: Inhibition of DNA synthesis (methyl-[3H]thymidine incorporation) in P388 cells; format: cell-based, murine; details: 50% reduction in 1 hr of methyl-[3H]thymidine incorporation, read-out: IC50 DNA synth
Experimental: (§1) Experiments for inhibition of nucleic acid synthesis in tumor cells in vitro were carried out with P388 tumor cells, details of which were reported by Sengupta et al, J. Med. Chem., 18, 1175 (1975). […] AMD-OZLs inhibit either process with equal activity and with the potency of its metabolite 7-hydroxy-AMD.
^c IC50 (DNA) = concentration of inhibitor in μM required to
cause 50% reduction (in 1 hr) in methyl[^3 H]thymidine incorporation
into acid precipitable material with use of P388 cells.

[2] = test system: P388 cells; assay: Inhibition of RNA synthesis (2-[14C]uridine incorporation) in P388 cells; format: cell-based, murine; details: for IC50: 50% reduction in 1 hr of 2-[14C]uridine incorporation, read-out: IC50 RNA synth; for IC50 DNA/IC50 RNA: ratio
Experimental: as §1
^b IC50 (RNA) = concentration of inhibitor in μM required to
cause 50% reduction (in 1 hr) in 2[^14 C]uridine incorporation into
acid precipitable material with use of P388 cells.

[3] = test system: calf-thymus DNA; assay: Equilibrium binding to calf-thymus DNA, Scatchard plots of binding isotherms (spectrophotometric); details: Scatchard plot
Experimental: The "reverse" analogues bind to calf-thymus DNA, but the spectrophotometrically determined binding (Kapp and Bapp, equilibrium binding values) constants are found to be lower than those of AMD. The binding is also measured by thermal denaturation of DNA.
(§2) The equilibrium binding constants (Kapp and Bapp) of the "reverse" methyl 7a and the "reverse" phenyl 8a were determined from the Scatchard plots of binding isotherms; the Scatchard plots are produced according to the previously described methods using calf-thymus DNA [Sengupta et al, Biochem. Biophys. Acta 521, 89 (1978)]. The Kapp values are 2.5×10^6 and 2.3×10^6 M^-1, respectively; corresponding Bapp values are 0.038 and 0.036. […] But, these "reverse" analogues associate with DNA less strongly; their frequency of binding is also lower compared to that of AMD. However, the "reverse" analogues fail to cause any measurable change in the ratio of the intrinsic viscosity (γ) of DNA with the increasing ratios of [ligand]/DNA base pair (r), even when low molecular weight DNAs (0.5×10^5 to 1.0×10^5) were employed.

[4] = Maximum tolerated dose (LD10) in tumor-free BDF1 male mice; format: in vivo; details: lethal dose for 10% normal BDF1 male mice, 21 days (LD10); ip days 1, 5 and 9
Experimental: (§3) These analogues were also tested in tumor-free BDF1 male mice for determination of their MTD values (Table VIII). The animals (18-22 g) were given a broad range of doses of drugs in 5% dimethyl sulfoxide-saline on days 1, 5 and 9. Drugs were administered ip and the maximum tolerated doses of agents which caused death in only 10% of the tested animals in 21 days (i.e., LD10) were recorded as MTD. […] However, the MED values of 7-hydroxy-AMD and its precursor AMD-OZL 10a are high and are seven to tenfold of the MED values of 4a and 8a. On the basis of these MED values, the therapeutic indices of 8a and 4a are 70 and 96. The therapeutic index of 2a is 13, of 10a 10, and of AMD only 4.
^c MTD (maximum tolerated dose) is the lethal dose
(milligram/kilogram) for 10% normal BDF1 male mice (18-22 g); animal
calculated from a plot of logdose vs. percent mortality.

[5] = test system: DNA; assay: Viscometry of DNA (test for intercalative binding); details: increasing [ligand]/DNA base pair ratio
Experimental: as §2

[6] = test system: P388/S; assay: In vivo activity against P388/S (adriamycin sensitive) leukemia, Table VII; set-up: species or system BDF1 mice; details: for P388/S % ILS / P388/S tumor-free survivors/total on day 60: at optimal dose; for P388/S optimal dose: ip, days 1, 5 and 9
Experimental: (§4) ^a Male BDF1 mice inoculated ip: 10^6 cells inoculum, day 0.
(§5) Drugs administered in 10% dimethyl sulfoxidesaline on days 1, 5 and 9. %
(§6) ILS = percent increase in life span. Fractions in parentheses = tumorfree
(§7) survivors/total on day 60. P388/S (adriamycin sensitive) and P388/ADR
(§8) (adriamycin resistant) tumors were evaluated in the same experiment with […]

[7] = test system: P388/ADR; assay: In vivo activity against P388/adriamycin-resistant leukemia; set-up: species or system BDF1 mice; details: for P388/ADR optimal dose: ip, days 1, 5 and 9
Experimental: as §4, §5, §6, §7, §8

[8] = test system: P388 Leukemia; assay: Minimum effective dose and therapeutic index vs. P388 leukemia; format: in vivo; details: dose giving 45% increase in life span in P388 tumor bearing mice; ip days 1, 5 and 9
Experimental: as §3
^a Drugs administered ip once on days 1, 5 and 9 starting 1 day after
tumor implantation. Determinations were made from analysis of plotted
^b MED (minimum effective dose) is the dose (milligram/kilogram)
providing an increase in life span of 45% over control in P388 tumor

| Compound | IC50 [1] [nM] | IC50 [2] [nM] | IC50 DNA/IC50 RNA [2] | Bapp (equilibrium binding value) [3] | Kapp (equilibrium binding constant) [3] [M⁻¹] | MTD (maximum tolerated dose) [4] [milligram/kilogram] | change in intrinsic viscosity of DNA / intercalative binding by viscometry [5] | P388/S % ILS [6] [%] | P388/S tumor-free survivors/total on day 60 [6] | P388/S optimal dose [6] [mg/kg] | P388/ADR % ILS ([7]; at optimal dose) [%] | P388/ADR optimal dose [7] [mg/kg] | MED (minimum effective dose) [8] [milligram/kilogram] | P388/ADR tumor-free survivors/total on day 60 ([7]; at optimal dose) |
| --- | --- | --- | --- | --- | --- | --- | --- | --- | --- | --- | --- | --- | --- | --- |
| Cc1nc2c(C(=O)NC3C(=O)NC(C(C)C)C(=O)N4CCCC4C(=O)N(C)CC(=O)N(C)C(C(C)C)C(=O)OC3C)c3nc4c(C(=O)NC5C(=O)NC(C(C)C)C(=O)N6CCCC6C(=O)N(C)CC(=O)N(C)C(C(C)C)C(=O)OC5C)c(N)c(=O)c(C)c-4oc3c(C)c2o1 [7a, 7-Amino-2,9,11-trimethyl-8H-8-oxooxazolo [4,5-b]phenoxazine 4,6-bis[carbonyl-L-threonyl-D-valyl-L-prolylsarcosyl-L-N-methylvaline-(threonine hydroxyl)] lactone] | 1010 | 90 | 11.22 | 0.038 | 2.5e+06 | – | – | – | – | – | – | – | – | – |
| Cc1c2oc3c(C)ccc(C(=O)N[C@@H]4C(=O)N[C@H](C(C)C)C(=O)N5CCC[C@H]5C(=O)N(C)CC(=O)N(C)[C@@H](C(C)C)C(=O)O[C@@H]4C)c3nc-2c(C(=O)N[C@@H]2C(=O)N[C@H](C(C)C)C(=O)N3CCC[C@H]3C(=O)N(C)CC(=O)N(C)[C@@H](C(C)C)C(=O)O[C@@H]2C)c(N)c1=O [AMD, Actinomycin D] (I: T[dV]P[Sar][NMeV] / II: T[dV]P[Sar][NMeV]; ester I:1-I:C, II:1-II:C; linker I:N-II:N via Actinocin(9to1)) | 1120 | 50 | 22 and 22.40 | 0.108 | 2.3e+07 | 0.25 | steady rise in the value of γ | 132 | 1/8 | 0.25 | 22 | 0.25 | 0.0625 | – |
| Cc1c2oc3c(C)c(O)c(N)c(C(=O)NC4C(=O)NC(C(C)C)C(=O)N5CCCC5C(=O)N(C)CC(=O)N(C)C(C(C)C)C(=O)OC4C)c3nc-2c(C(=O)NC2C(=O)NC(C(C)C)C(=O)N3CCCC3C(=O)N(C)CC(=O)N(C)C(C(C)C)C(=O)OC2C)c(N)c1=O (centres unmarked) [4a, 7-Hydroxy-8-amino-actinomycin D] | 1110 | 1150 | 0.97 | 1.3 | 6.3e+07 | 2.40 | lack of intercalative binding | 382 | 4/8 | 0.6 | 176 | 1.2 | 0.025 | 3/8 |
